Laboratory results published in patent publication US20100056565A1, “Heterocyclic Derivatives as M3 Muscarinic Receptors” (priority 2007, published 2010).
Where a name gives a salt, the structure may show the parent alone.

The molecules below were run against T1, Recombinant human M3 receptor (Homo sapiens, UniProt P20309) (assay: biochemical). Conditions: M3, SPA format assay; read-out: Ki in the SPA format assay.
T1 construct: expressed in transfected cells; host or cells: CHO-K1 cells (membranes)
T1 sequence (P20309 whole entry): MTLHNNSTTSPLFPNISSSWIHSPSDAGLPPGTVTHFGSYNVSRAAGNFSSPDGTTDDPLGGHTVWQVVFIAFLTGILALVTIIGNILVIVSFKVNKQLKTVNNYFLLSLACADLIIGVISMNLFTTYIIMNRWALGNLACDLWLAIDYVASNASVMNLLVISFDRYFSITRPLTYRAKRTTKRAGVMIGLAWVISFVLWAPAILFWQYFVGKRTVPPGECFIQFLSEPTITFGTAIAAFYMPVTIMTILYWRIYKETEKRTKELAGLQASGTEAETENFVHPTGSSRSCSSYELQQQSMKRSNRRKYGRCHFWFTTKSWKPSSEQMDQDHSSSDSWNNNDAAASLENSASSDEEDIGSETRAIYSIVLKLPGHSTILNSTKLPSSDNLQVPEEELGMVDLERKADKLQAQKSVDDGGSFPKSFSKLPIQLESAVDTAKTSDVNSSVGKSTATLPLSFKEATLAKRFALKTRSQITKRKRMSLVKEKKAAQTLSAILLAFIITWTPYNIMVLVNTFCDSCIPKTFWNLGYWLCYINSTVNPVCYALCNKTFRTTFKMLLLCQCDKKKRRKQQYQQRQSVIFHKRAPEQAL
Format: binding

Molecule `O[C@](c1ccccc1)(c1ncc(C[N+]23CCC(CC2)[C@@H](Oc2ccc(F)cc2)C3)o1)C1CCCCC1` [Example 66, (R)-1-[2-((R)—Cyclohexyl-hydroxy-phenyl-methyl)-oxazol-5-ylmethyl]-3-(4-fluoro-phenoxy)-1-azonia-bicyclo[2.2.2]octane; bromide] has a Ki of 0.09 nM.

Same assay, conditions: SPA format; read-out: M3 Ki (SPA format)

`O[C@](c1ccccc1)(c1ncc(C[N+]23CCC(CC2)[C@@H](OCc2ccc(Cl)cc2)C3)o1)C1CCCCC1` [Example 23, (R)-3-(4-Chloro-benzyloxy)-1-[2-((R)-cyclohexyl-hydroxy-phenyl-methyl)-oxazol-5-ylmethyl]-1-azonia-bicyclo[2.2.2]octane; bromide] and `O[C@](c1ccccc1)(c1ncc(C[N+]23CCC(CC2)[C@@H](OCc2ccc(Cl)cc2)C3)o1)C1CCCC1` [Example 44, (R)-3-(4-chloro-benzyloxy)-1-[2-((R)-cyclopentyl-hydroxy-phenyl-methyl)-oxazol-5-ylmethyl]-1-azonia-bicyclo[2.2.2]octane; formate] cannot be ordered by Ki: < 5 nM for the first, < 5 nM for the second.

`O[C@](c1ccccc1)(c1ncc(C[N+]23CCC(CC2)[C@@H](OCc2ccc(Cl)c(Cl)c2)C3)o1)C1CCCCC1` [Example 22, (R)-1-[2-((R)-cyclohexyl-hydroxy-phenyl-methyl)-oxazol-5-ylmethyl]-3-(3,4-dichloro-benzyloxy)-1-azonia-bicyclo[2.2.2]octane; formate] and `O[C@](c1ccccc1)(c1ncc(C[N+]23CCC(CC2)[C@@H](OCc2ccc(F)cc2)C3)o1)C1CCCCC1` [Example 32, (R)-1-[2-((R)—Cyclohexyl-hydroxy-phenyl-methyl)-oxazol-5-ylmethyl]-3-(4-fluoro-benzyloxy)-1-azonia-bicyclo[2.2.2]octane; bromide] cannot be ordered by Ki: < 5 nM for the first, < 5 nM for the second.

`O[C@](c1ccccc1)(c1ncc(C[N+]23CCC(CC2)[C@H](CSc2ccccc2)C3)o1)C1CCCCC1` [Example 43, (S)-1-[2-((R)—Cyclohexyl-hydroxy-phenyl-methyl)-oxazol-5-ylmethyl]-3-phenylsulfanylmethyl-1-azonia-bicyclo[2.2.2]octane; bromide] and `OC(c1ccccc1)(c1ncc(C[N+]23CCC(CC2)C(CSc2ccccc2)C3)o1)C1CCC1` (single isomer, unassigned) [Example 122] cannot be ordered by Ki: < 5 nM for the first, < 5 nM for the second.

`N#Cc1cccc(O[C@H]2C[N+]3(Cc4cnc(C(O)(c5ccccc5)c5ccccc5)o4)CCC2CC3)c1` [Example 80, (R)-3-(3-cyano-phenoxy)-1-[2-(hydroxy-diphenyl-methyl)-oxazol-5-ylmethyl]-1-azonia-bicyclo[2.2.2]octane; bromide] and `OC(c1ccccc1)(c1ccccc1)c1ncc(C[N+]23CCC(CC2)[C@@H](Oc2cccc(F)c2)C3)o1` [Example 73, (R)-3-(3-Fluoro-phenoxy)-1-[2-(hydroxy-diphenyl-methyl)-oxazol-5-ylmethyl]-1-azonia-bicyclo[2.2.2]octane; bromide] cannot be ordered by Ki: < 5 nM for the first, < 5 nM for the second.

Compared with `Cc1ccc(O[C@H]2C[N+]3(Cc4cnc(C(O)(c5ccccc5)c5ccccc5)o4)CCC2CC3)cc1Cl` [Example 59, (R)-3-(3-Chloro-4-methyl-phenoxy)-1-[2-(hydroxy-diphenyl-methyl)-oxazol-5-ylmethyl]-1-azonia-bicyclo[2.2.2]octane; bromide], `OC(c1ccccc1)(c1ccccc1)c1ncc(C[N+]23CCC(CC2)[C@@H](Oc2cc(Cl)cc(Cl)c2)C3)o1` [Example 74, (R)-3-(3,5-dichloro-phenoxy)-1-[2-(hydroxy-diphenyl-methyl)-oxazol-5-ylmethyl]-1-azonia-bicyclo[2.2.2]octane; bromide] is higher in Ki: < 5 nM for the first, > 20 nM for the second.

`OC(c1ccccc1)(c1ccccc1)c1ncc(C[N+]23CCC(CC2)[C@@H](OCc2ccc(Cl)cc2)C3)o1` [Example 28, (R)-3-(4-Chloro-benzyloxy-1-[2-(hydroxy-diphenyl-methyl)-oxazol-5-ylmethyl]-1-azonia-bicyclo[2.2.2]octane; bromide] and `OC(c1ccccc1)(c1ccccc1)c1ncc(C[N+]23CCC(CC2)[C@@H](Oc2cccs2)C3)o1` [Example 102, (R)-1-[2-(Hydroxy-diphenyl-methyl)-oxazol-5-ylmethyl]-3-(thiophen-2-yloxy)-1-azonia-bicyclo[2.2.2]octane; bromide] fall in the same range of Ki: 5 to 20 nM for the first, 5 to 20 nM for the second.

`OC(c1ccccc1)(c1ncc(C[N+]23CCC(CC2)[C@@H](OCc2ccccc2)C3)o1)C1CCC1` (single isomer, unassigned) [Example 50, formate] and `O[C@](c1ccccc1)(c1ncc(C[N+]23CCC(CC2)C(OCc2ccccc2)C3)o1)C1CCCCC1` (stereo partly drawn) [Example 16, 3-benzyloxy-1-[2-((R)-cyclohexyl-hydroxy-phenyl-methyl)-oxazol-5-ylmethyl]-1-azonia-bicyclo[2.2.2]octane; formate] cannot be ordered by Ki: < 5 nM for the first, < 5 nM for the second.

First: O[C@](c1ccccc1)(c1ncc(C[N+]23CCC(CC2)[C@H](Oc2ccccc2)C3)o1)C1CCCCC1 [Example 8, (S)-1-[2-((R)—Cyclohexyl-hydroxy-phenyl-methyl)-oxazol-5-ylmethyl]-3-phenoxy-1-azonia-bicyclo[2.2.2]octane; bromide]
Second: O[C@](c1ccccc1)(c1ncc(C[N+]23CCC(CC2)[C@@H](Oc2ccc(Cl)cc2)C3)o1)C1CCCCC1 [Example 64, (R)-3-(4-Chloro-phenoxy)-1-[2-((R)-cyclohexyl-hydroxy-phenyl-methyl)-oxazol-5-ylmethyl]-1-azonia-bicyclo[2.2.2]octane; bromide]
The Ki of the first is higher: 5 to 20 nM for the first, < 5 nM for the second. The second binds more tightly here.

First: OC(c1ccccc1)(c1cc(C[N+]23CCC(CC2)[C@@H](Oc2cccc(F)c2)C3)on1)C1CCCCC1 (single isomer, unassigned) [Example 101]
Second: OC(c1ccccc1)(c1cc(C[N+]23CCC(CC2)C(CSc2ccc(F)cc2)C3)on1)C1CCCCC1 (single isomer, unassigned) [Example 125]
The Ki of the first is lower: < 5 nM for the first, 5 to 20 nM for the second.

`OC(c1ccccc1)(c1noc(C[N+]23CCC(CC2)[C@@H](OCc2ccc(F)cc2)C3)n1)C1CCCCC1` (single isomer, unassigned) [Example 130] and `OC(c1ccccc1)(c1noc(C[N+]23CCC(CC2)[C@@H](OCc2ccccc2)C3)n1)C1CCCCC1` (single isomer, unassigned) [Example 30, formate] cannot be ordered by Ki: < 5 nM for the first, < 5 nM for the second.

`O[C@](c1ccccc1)(c1ncc(C[N+]23CCC(CC2)C(Cc2ccccc2)C3)o1)C1CCCCC1` (stereo partly drawn) [Example 61, 3-benzyl-1-[2-((R)-cyclohexyl-hydroxy-phenyl-methyl)-oxazol-5-ylmethyl]-1-azonia-bicyclo[2.2.2]octane; formate] and `O[C@](c1ccccc1)(c1ncc(C[N+]23CCC(CC2)C(CCc2ccccc2)C3)o1)C1CCCCC1` (stereo partly drawn) [Example 36, 1-[2-((R)—Cyclohexyl-hydroxy-phenyl-methyl)-oxazol-5-ylmethyl]-3-phenethyl-1-azonia-bicyclo[2.2.2]octane; bromide] cannot be ordered by Ki: < 5 nM for the first, < 5 nM for the second.

`OC(c1ccccc1)(c1ccccc1)c1ncc(C[N+]23CCC(CC2)C(COc2cccc(F)c2)C3)o1` (single isomer, unassigned) [Example 84, 3-(3-Fluoro-phenoxymethyl)-1-[2-(hydroxy-diphenyl-methyl)-oxazol-5-ylmethyl]-1-azonia-bicyclo[2.2.2]octane; bromide] and `OC(c1ccccc1)(c1ccccc1)c1noc(C[N+]23CCC(CC2)[C@@H](Oc2cccs2)C3)n1` [Example 116, (R)-1-[3-(Hydroxy-diphenyl-methyl)-[1,2,4]oxadiazol-5-ylmethyl]-3-(thiophen-2-yloxy)-1-azonia-bicyclo[2.2.2]octane; chloride] cannot be ordered by Ki: < 5 nM for the first, < 5 nM for the second.

`O[C@](c1ccccc1)(c1ncc(C[N+]23CCC(CC2)[C@@H](SC2CCCCC2)C3)o1)C1CCCCC1` [Example 119, (R)-1-[2-((R)—Cyclohexyl-hydroxy-phenyl-methyl)-oxazol-5-ylmethyl]-3-cyclohexylsulfanyl-1-azonia-bicyclo[2.2.2]octane; bromide] and `O[C@](c1ccccc1)(c1ncc(C[N+]23CCC(CC2)[C@@H](Oc2ccc(F)cc2)C3)o1)C1CCCCC1` [Example 66, (R)-1-[2-((R)—Cyclohexyl-hydroxy-phenyl-methyl)-oxazol-5-ylmethyl]-3-(4-fluoro-phenoxy)-1-azonia-bicyclo[2.2.2]octane; bromide] cannot be ordered by Ki: < 5 nM for the first, < 5 nM for the second.

`O[C@](c1ccccc1)(c1nnc(C[N+]23CCC(CC2)[C@@H](Oc2ccc(F)cc2)C3)o1)C1CCCCC1` [Example 142, (R)-1-[5-((R)—Cyclohexyl-hydroxy-phenyl-methyl)-[1,3,4]oxadiazol-2-ylmethyl]-3-(4-fluoro-phenoxy)-1-azonia-bicyclo[2.2.2]octane; bromide] and `O[C@](c1ccccc1)(c1nnc(C[N+]23CCC(CC2)[C@H](CSc2ccccc2)C3)o1)C1CCCCC1` [Example 121, (S)-1-[5-((R)—Cyclohexyl-hydroxy-phenyl-methyl)-[1,3,4]oxadiazol-2-ylmethyl]-3-phenylsulfanylmethyl-1-azonia-bicyclo[2.2.2]octane; bromide] cannot be ordered by Ki: < 5 nM for the first, < 5 nM for the second.

`OC(c1ccccc1)(c1ncc(C[N+]23CCC(CC2)[C@@H](OCc2ccccc2)C3)s1)C1CCCCC1` (stereo partly drawn) [Example 29, (R)-3-Benzyloxy-1-[2-(cyclohexyl-hydroxy-phenyl-methyl)-thiazol-5-ylmethyl]-1-azonia-bicyclo[2.2.2]octane; bromide] and `OC(c1ccccc1)(c1cc(C[N+]23CCC(CC2)C(CSc2ccccc2)C3)on1)C1CCCCC1` (single isomer, unassigned) [Example 123] cannot be ordered by Ki: < 5 nM for the first, < 5 nM for the second.

`OC(c1ccccc1)(c1noc(C[N+]23CCC(CC2)[C@@H](Sc2ccccc2)C3)n1)C1CCCCC1` (single isomer, unassigned) [Example 131] and `OC(c1ccccc1)(c1ccccc1)c1noc(C[N+]23CCC(CC2)[C@@H](SC2CCCCC2)C3)n1` [Example 138, (R)-3-Cyclohexylsulfanyl-1-[3-(hydroxy-diphenyl-methyl)-[1,2,4]oxadiazol-5-ylmethyl]-1-azonia-bicyclo[2.2.2]octane; chloride] cannot be ordered by Ki: < 5 nM for the first, < 5 nM for the second.

`OC(c1ccccc1)(c1noc(C[N+]23CCC(CC2)C(CSc2cccc(F)c2)C3)n1)C1CCCCC1` (single isomer, unassigned) [Example 133] and `O[C@](c1ccccc1)(c1ncc(C[N+]23CCC(CC2)[C@H](CSc2ccc(F)cc2)C3)o1)C1CCCCC1` [Example 109, (S)-1-[2-((R)—Cyclohexyl-hydroxy-phenyl-methyl)-oxazol-5-ylmethyl]-3-(4-fluoro-phenylsulfanylmethyl)-1-azonia-bicyclo[2.2.2]octane; bromide] cannot be ordered by Ki: < 5 nM for the first, < 5 nM for the second.
